Where two headings read alike, the source gives them in different places.
How the values were obtained:
in vivo = format: in vivo; settings: mouse, in vivo, ip; i.p. in mice; N = 5, K = 4; read-out: LD50 and fiducial limits
Source text: (§1) The acute toxicity of the compounds of general formula (I) was investigated in mice using the Weil method (Weil C. S., Biometr. J. 8, 249, 1952).

[1] = system: arrythmia induced by Aconitine in mice; assay: animal or person; format: in vivo; settings: for change in vivo at 100 mg/kg / change in vivo at 25 mg/kg / change in vivo at 40 mg/kg / change in vivo at 8.9 mg/kg / change in vivo at 50 mg/kg / change in vivo at 35 mg/kg / change in vivo at 20 mg/kg: Mus musculus, iv; for % increase of the latency time to onset of initial cardiac arrythmia / % increase of the latency time to onset of tachycardia: with respect to the control group
Procedure: The antiarrhythmic effect of the compounds was also investigated in mice according to the P. W. Nwangwu, T. Holcslow procedure (P. W. Nwangwu, T. L. Holcslow; Arch. Int. Pharmacodyn. 229, 219 (1977)). Using aconitine (5γ/ml) as arrhythmogenic agent, the changes in the cardiac rhythm of the animals were recorded and the onset time of initial arrhythmia and/or of ventricular tachycardia were used as end point.

[2] = system: plasma cholesterol (Chol.) triglycerides (TG) and α-, β- and pre-β-lipoproteins; assay: plasma cholesterol, triglycerides and lipoproteins in rats treated with olive oil; format: in vivo; settings: olive oil 15 ml kg^-1, N = 6; for % Lipoproteins β: control 16.12 ± 1.48; for % Lipoproteins α: control 23.28 ± 2.19; for % Lipoproteins pre-β: control 56.45 ± 2.36; for Chol. (plasma cholesterol): control 96.18 ± 4.16; for TG (plasma triglycerides): control 215.36 ± 20.18
mice = assay: in vivo; format: in vivo; settings: i.p. in mice; N = 5, K = 4
Source text: as §1

[3] = system: rabbit's heart "in vitro"; assay: cardiokinetic effect: contractile force of isolated rabbit heart (Langendorff) after anoxia; settings: 10^-6 M; 10 minutes from the interruption of the anoxic period; control 26.93 ± 5.31
Procedure: The cardiokinetic effect was investigated on rabbit hearts isolated by the Langendorff method. […] The isometric contractions, electro-cardiogram and coronary flow were recorded using a "Battaglia-Rangoni" polygraph. By removing the oxygen from the perfusion fluid, metabolic damage was induced in the cardiac muscle, up to an 80% reduction in the cardiac contractile force. Under these conditions of prolonged anoxia the aerobic glycolysis of the myocardium is slowed down with attendant formation of acid catabolites due to both the accumulation of pyruvic acid and its conversion to lactic acid which cannot be utilized because of the depression of pyridine enzymes, such as LDH (lactodehydrogenase). This has repercussions on the anaerobic glycolysis affecting an ever increasing number of enzymes, accompanied by a progressive and increasingly critical exhaustion of the myocardium. Thus a whole series of cardiac muscle fatigue levels occurs which can be observed by the behaviour of the examined parameters, namely the contractile force, coronary flow, heart rate and cardiac rhythm. As soon as the contractile force was reduced by 80%, the perfusion fluid was once again oxygenated either without adding other compounds (controls) or with the addition of the compounds under examination.

[4] = read-out: % increase of the latency time to onset of initial cardiac arrythmia
[5] = read-out: % increase of the latency time to onset of tachycardia

Molecule: C[N+](C)(C)CC(CC(=O)O)OC(=O)CC1C=CCC1 (centres unmarked) [2-cyclopenten ACAR]
- LD50 (in vivo): 1200 mg/kg
- change in vivo at 100 mg/kg [1, 4]: 40%
- change in vivo at 100 mg/kg [1, 5]: 20%

Molecule: CC(C)(O)C(=O)OC(CC(=O)O)C[N+](C)(C)C (centres unmarked) [2-hydroxy isobutyryl CAR]
- LD50 (in vivo): 1470 mg/kg
- change in vivo at 25 mg/kg [1, 4]: 55%
- change in vivo at 25 mg/kg [1, 5]: 48%
- % Lipoproteins β ([2]; 450 mg kg^-1 oral): 10.36 ± 1.12%
- % Lipoproteins α ([2]; 450 mg kg^-1 oral): 27.19 ± 3.48%
- % Lipoproteins pre-β ([2]; 450 mg kg^-1 oral): 48.36 ± 1.15%
- Chol. (plasma cholesterol) ([2]; 450 mg kg^-1 oral): 75.03 ± 4.12 mg/100 ml
- TG (plasma triglycerides) ([2]; 450 mg kg^-1 oral): 100.29 ± 12.48 mg/100 ml

Molecule: CC(C)C(O)C(=O)OC(CC(=O)O)C[N+](C)(C)C (centres unmarked) [2-hydroxy isovaleryl CAR]
- LD50 (in vivo): 1580 mg/kg
- change in vivo at 40 mg/kg [1, 4]: 60%
- change in vivo at 40 mg/kg [1, 5]: 30%

Molecule: COC(=O)CCC(=O)OC(CC(=O)O)C[N+](C)(C)C (centres unmarked) [3-carbomethoxypropionyl CAR, 3-carbomethoxypropionyl carnitine chloride]
- LD50 (in vivo): 985 mg/kg
- change in vivo at 25 mg/kg [1, 4]: 65%
- change in vivo at 25 mg/kg [1, 5]: 39%
- % Lipoproteins β ([2]; 350 mg kg^-1 oral): 11.18 ± 1.15%
- % Lipoproteins α ([2]; 350 mg kg^-1 oral): 34.17 ± 3.23%
- % Lipoproteins pre-β ([2]; 350 mg kg^-1 oral): 50.03%
- Chol. (plasma cholesterol) ([2]; 350 mg kg^-1 oral): 69.25 ± 3.26 mg/100 ml
- TG (plasma triglycerides) ([2]; 350 mg kg^-1 oral): 88.15 ± 15.36 mg/100 ml

Molecule: C=C[C@H]1C[N@@]2CC[C@H]1C[C@@H]2[C@@H](O)c1ccnc2ccc(OC)cc12 [Quinidine, reference compound]
- change in vivo at 8.9 mg/kg [1, 4]: 50%
- change in vivo at 8.9 mg/kg [1, 5]: 41.7%

Molecule: C=CC(=O)OC(CC(=O)O)C[N+](C)(C)C (centres unmarked) [acrilyl-CAR]
- LD50 (in vivo): 1380 mg/kg
- change in vivo at 50 mg/kg [1, 4]: 45%
- change in vivo at 50 mg/kg [1, 5]: 39%

Molecule: C[N+](C)(C)CC(CC(=O)O)OC(=O)CC1CCCCC1 (centres unmarked) [cyclohexyl ACAR, cyclohexyl acetyl carnitine chloride]
- LD50 (in vivo): 850 mg/kg
- change in vivo at 35 mg/kg [1, 4]: 63%
- change in vivo at 35 mg/kg [1, 5]: 44%
- % Lipoproteins β ([2]; 400 mg kg^-1 oral): 12.15 ± 1.09%
- % Lipoproteins α ([2]; 400 mg kg^-1 oral): 36.48 ± 2.36%
- % Lipoproteins pre-β ([2]; 400 mg kg^-1 oral): 49.12%
- Chol. (plasma cholesterol) ([2]; 400 mg kg^-1 oral): 85.15 ± 4.26 mg/100 ml
- TG (plasma triglycerides) ([2]; 400 mg kg^-1 oral): 100.12 ± 15.16 mg/100 ml

Molecule: CCOCC(=O)OC(CC(=O)O)C[N+](C)(C)C (centres unmarked) [ethoxy ACAR, ethoxy acetyl carnitine chloride]
- LD50 (in vivo): 2120 mg/kg
- change in vivo at 20 mg/kg [1, 4]: 60%
- change in vivo at 20 mg/kg [1, 5]: 55%
- % Lipoproteins β ([2]; 250 mg kg^-1 oral): 10.28 ± 1.52%
- % Lipoproteins α ([2]; 250 mg kg^-1 oral): 37.15 ± 2.17%
- % Lipoproteins pre-β ([2]; 250 mg kg^-1 oral): 42.15 ± 2.27%
- Chol. (plasma cholesterol) ([2]; 250 mg kg^-1 oral): 70.26 ± 6.48 mg/100 ml
- TG (plasma triglycerides) ([2]; 250 mg kg^-1 oral): 78.25 ± 10.12 mg/100 ml

Molecule: CCOCC(=O)O[C@H](CC(=O)O)C[N+](C)(C)C.[Cl-] [ethoxyacetyl CAR]
- LD50 and fiducial limits (mice): 760 (545-975) mg kg^-1
- contractile force, mean ± ESM [3]: 62.25 ± 3.24%
- % increase of the latency time to onset of initial cardiac arrythmia ([1]; 100 mg kg^-1 i.v.): 40%
- % increase of the latency time to onset of tachycardia ([1]; 100 mg kg^-1 i.v.): 20%

Molecule: CC(C=O)C(=O)OC(CC(=O)[O-])C[N+](C)(C)C (centres unmarked) [formyl propionyl CAR]
- LD50 and fiducial limits (mice): 1010 (850-1170) mg kg^-1
- contractile force, mean ± ESM [3]: 74.26 ± 4.15%
- % increase of the latency time to onset of initial cardiac arrythmia ([1]; 60 mg kg^-1 i.v.): 55%
- % increase of the latency time to onset of tachycardia ([1]; 60 mg kg^-1 i.v.): 34%

Molecule: COCC(=O)OC(CC(=O)O)C[N+](C)(C)C (centres unmarked) [methoxy ACAR, methoxy acetyl carnitine chloride]
- LD50 (in vivo): 1980 mg/kg
- change in vivo at 25 mg/kg [1, 4]: 65%
- change in vivo at 25 mg/kg [1, 5]: 50%

Molecule: CC(C)(C)CC(=O)OC(CC(=O)O)C[N+](C)(C)C (centres unmarked) [tert-butyl ACAR]
- LD50 (in vivo): 1120 mg/kg
- change in vivo at 25 mg/kg [1, 4]: 59%
- change in vivo at 25 mg/kg [1, 5]: 36%
- % Lipoproteins β ([2]; 350 mg kg^-1 oral): 13.27 ± 1.12%
- % Lipoproteins α ([2]; 350 mg kg^-1 oral): 31.12 ± 2.17%
- % Lipoproteins pre-β ([2]; 350 mg kg^-1 oral): 51.36%
- Chol. (plasma cholesterol) ([2]; 350 mg kg^-1 oral): 70.12 ± 3.24 mg/100 ml
- TG (plasma triglycerides) ([2]; 350 mg kg^-1 oral): 99.36 ± 10.12 mg/100 ml

Molecule: vinyl acetyl carnitine chloride [vinyl CAR]
- LD50 and fiducial limits (mice): 1200 (800-1600) mg kg^-1
- contractile force, mean ± ESM [3]: 48.25 ± 5.12%
- % increase of the latency time to onset of initial cardiac arrythmia ([1]; 38 mg kg^-1 i.v.): 53%
- % increase of the latency time to onset of tachycardia ([1]; 38 mg kg^-1 i.v.): 41%
- % Lipoproteins β ([2]; 300 mg kg^-1 oral): 14.13 ± 1.63%
- % Lipoproteins α ([2]; 300 mg kg^-1 oral): 29.46 ± 3.15%
- % Lipoproteins pre-β ([2]; 300 mg kg^-1 oral): 48.89 ± 2.96%
- Chol. (plasma cholesterol) ([2]; 300 mg kg^-1 oral): 78.15 ± 6.16 mg/100 ml
- TG (plasma triglycerides) ([2]; 300 mg kg^-1 oral): 112.15 ± 15.16 mg/100 ml
